In brackets after ≈: the same amount, converted by molar mass. Where two headings read alike, the source gives them in different places.
T1: Staphylococcus aureus ClpP (Staphylococcus aureus), Q2G036
T1 chain: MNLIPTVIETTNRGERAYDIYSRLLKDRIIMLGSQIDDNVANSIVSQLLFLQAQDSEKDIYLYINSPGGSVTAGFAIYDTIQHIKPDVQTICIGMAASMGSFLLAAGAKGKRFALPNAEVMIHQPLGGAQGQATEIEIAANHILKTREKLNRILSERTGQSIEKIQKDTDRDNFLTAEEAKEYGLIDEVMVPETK


Experiments:
[1] = system: T2, Staphylococcus aureus NRS1; assay: microbe, parasite or virus in culture; set-up: species or system Staphylococcus aureus strains; Minimum inhibitory concentration, growth inhibition of S. aureus strains in culture; conditions: NRS1, read-out: MIC
T2 construct: NRS1
Description: (§1) Given our species-specific activators suppress the growth of S. aureus 8325-4, we then tested the antistaphylococcal spectrum of (R)- and (S)-ZG197 against a panel of S. aureus strains, including the Newman strain and multidrug-resistant MRSA strains. The USA300, NRS-1, NRS-70, NRS-100, NRS-108, and NRS-271 MRSA strains were collected from the Network on Antimicrobial Resistance in S. aureus (Supplementary Table 2). […] We also tested the antibacterial effects of our activators on five hospital-acquired, multidrug-resistant MRSA isolates in China, including XJ009, XJ036, XJ049, XJ051, and XJ052 (Supplementary Table 2). […] We next performed a minimum inhibitory concentration (MIC) assay in [compound left out] culture to determine the antibacterial effects of our activators on the S. aureus 8325-4 strain. […] To dissect whether our activators’ antistaphylococcal activity depends on ClpP in S. aureus, we determined the inhibitory effects of our activators on the ΔclpP mutant and the complemented clpP or clpPI91W mutant strains, respectively (Fig. 5a). The selective (R)- and (S)-ZG197 activators or the global activators ICG-001 and ONC212 minimally suppress the growth of ΔclpP mutant strain, and all the MICs are observed to be over 256 μg/mL. The antibacterial phenotype can be rescued in the complemented clpP strain in the presence of ClpP activators.

[2] = system: T3, Staphylococcus aureus XJ009; assay: microbe, parasite or virus in culture; set-up: species or system Staphylococcus aureus strains; Minimum inhibitory concentration, growth inhibition of S. aureus strains in culture; conditions: XJ009, read-out: MIC
T3 construct: XJ009
Description: as §1

[3] = system: T4, Staphylococcus aureus Newman; assay: microbe, parasite or virus in culture; set-up: species or system Staphylococcus aureus strains; Minimum inhibitory concentration, growth inhibition of S. aureus strains in culture; conditions: NEWMAN, read-out: MIC
T4 construct: Newman
Description: as §1

[4] = system: T5, Staphylococcus aureus XJ052; assay: microbe, parasite or virus in culture; set-up: species or system Staphylococcus aureus strains; Minimum inhibitory concentration, growth inhibition of S. aureus strains in culture; conditions: XJ052, read-out: MIC
T5 construct: XJ052
Description: as §1

[5] = system: T6, Staphylococcus aureus NRS100; assay: microbe, parasite or virus in culture; set-up: species or system Staphylococcus aureus strains; Minimum inhibitory concentration, growth inhibition of S. aureus strains in culture; conditions: NRS100, read-out: MIC
T6 construct: NRS100
Description: as §1

[6] = system: T7, Staphylococcus aureus NRS271; assay: microbe, parasite or virus in culture; set-up: species or system Staphylococcus aureus strains; Minimum inhibitory concentration, growth inhibition of S. aureus strains in culture; conditions: NRS271, read-out: MIC
T7 construct: NRS271
Description: as §1

[7] = system: T8, Staphylococcus aureus XJ049; assay: microbe, parasite or virus in culture; set-up: species or system Staphylococcus aureus strains; Minimum inhibitory concentration, growth inhibition of S. aureus strains in culture; conditions: XJ049, read-out: MIC
T8 construct: XJ049
Description: as §1

[8] = system: T9, Staphylococcus aureus NRS108; assay: microbe, parasite or virus in culture; set-up: species or system Staphylococcus aureus strains; Minimum inhibitory concentration, growth inhibition of S. aureus strains in culture; conditions: NRS108, read-out: MIC
T9 construct: NRS108
Description: as §1

[9] = system: T10, Staphylococcus aureus NRS70; assay: microbe, parasite or virus in culture; set-up: species or system Staphylococcus aureus strains; Minimum inhibitory concentration, growth inhibition of S. aureus strains in culture; conditions: NRS70, read-out: MIC
T10 construct: NRS70
Description: as §1

[10] = system: T11, Staphylococcus aureus XJ036; assay: microbe, parasite or virus in culture; set-up: species or system Staphylococcus aureus strains; Minimum inhibitory concentration, growth inhibition of S. aureus strains in culture; conditions: XJ036, read-out: MIC
T11 construct: XJ036
Description: as §1

[11] = system: T12, Staphylococcus aureus XJ051; assay: microbe, parasite or virus in culture; set-up: species or system Staphylococcus aureus strains; Minimum inhibitory concentration, growth inhibition of S. aureus strains in culture; conditions: XJ051, read-out: MIC
T12 construct: XJ051
Description: as §1

[12] = system: T13, Staphylococcus aureus USA300 LAC; assay: microbe, parasite or virus in culture; set-up: species or system Staphylococcus aureus strains; Minimum inhibitory concentration, growth inhibition of S. aureus strains in culture; conditions: USA300, read-out: MIC
T13 construct: USA300 LAC
Description: as §1

SaClpPI91W = biological target: T14, SaClpPI91W (Staphylococcus aureus, UniProt Q2G036, I91W); assay: ITC; also DSF, CETSA, alpha-casein hydrolysis; type: binding
T14 construct: gene clpP

[13] = biological target: T15, SaClpP (Staphylococcus aureus ClpP) (Staphylococcus aureus, UniProt Q2G036); assay: ITC; also BLI (Kd […]), DSF, CETSA, X-ray crystal structure, alpha-casein hydrolysis EC50 […]; type: binding
[14] = biological target: T15, SaClpP (Staphylococcus aureus ClpP); assay: ITC; also BLI (Kd […]), DSF, CETSA, X-ray crystal structure; type: binding
[15] = system: T5, Staphylococcus aureus XJ052; assay: microbe, parasite or virus in culture; set-up: species or system Staphylococcus aureus strains; Minimum inhibitory concentration, growth inhibition of S. aureus strains in culture; conditions: XJ052
Description: as §1, with “liquid” for “[compound left out]”

[16] = system: T8, Staphylococcus aureus XJ049; assay: microbe, parasite or virus in culture; set-up: species or system Staphylococcus aureus strains; Minimum inhibitory concentration, growth inhibition of S. aureus strains in culture; conditions: XJ049
Description: as §1, with “liquid” for “[compound left out]”

[17] = system: T11, Staphylococcus aureus XJ036; assay: microbe, parasite or virus in culture; set-up: species or system Staphylococcus aureus strains; Minimum inhibitory concentration, growth inhibition of S. aureus strains in culture; conditions: XJ036
Description: as §1, with “liquid” for “[compound left out]”

[18] = system: T12, Staphylococcus aureus XJ051; assay: microbe, parasite or virus in culture; set-up: species or system Staphylococcus aureus strains; Minimum inhibitory concentration, growth inhibition of S. aureus strains in culture; conditions: XJ051
Description: as §1, with “liquid” for “[compound left out]”

[19] = biological target: T1, Staphylococcus aureus ClpP …; assay: crystal structure; SaClpP (10 mg/mL) with 5-fold ZG180, sitting drop vapor diffusion at 16 °C, 30% 2-methyl-2,4-pentanediol, 0.1 M sodium acetate/HCl pH 8.0, 20 mM calcium chloride; 1.90 Å; conditions: remark: other sources report otherwise

Molecule	MIC [1] [µg/mL]	MIC [2] [µg/mL]	MIC [3] [µg/mL]	MIC [4] [µg/mL]	MIC [5] [µg/mL]	MIC [6] [µg/mL]	MIC [7] [µg/mL]	MIC [8] [µg/mL]	MIC [9] [µg/mL]	MIC [10] [µg/mL]	MIC [11] [µg/mL]	MIC [12] [µg/mL]	other results
CC[C@H](C)[C@H]1C(=O)N([C@H](C)c2cccc3ccccc23)C[C@@H]2N(C(=O)NCCCC(F)(F)F)CCC(=O)N12 [(R)-ZG197]	2 (≈ 3.76 µM)	1 (≈ 1.88 µM)	0.5 (≈ 0.939 µM)	1 (≈ 1.88 µM)	0.5 (≈ 0.939 µM)	2 (≈ 3.76 µM)	0.5 (≈ 0.939 µM)	0.5 (≈ 0.939 µM)	0.5 (≈ 0.939 µM)	1 (≈ 1.88 µM)	0.5 (≈ 0.939 µM)	0.5 (≈ 0.939 µM)	Kd (SaClpPI91W): 930 ± 200 nM; Kd [13]: 2500 ± 200 nM
CC[C@@H](C)[C@H]1C(=O)N([C@@H](C)c2cccc3ccccc23)C[C@@H]2N(C(=O)NCCCC(F)(F)F)CCC(=O)N12 [(S)-ZG197]	8 (≈ 15 µM)	8 (≈ 15 µM)	2 (≈ 3.76 µM)	4 (≈ 7.51 µM)	2 (≈ 3.76 µM)	4 (≈ 7.51 µM)	8 (≈ 15 µM)	4 (≈ 7.51 µM)	4 (≈ 7.51 µM)	4 (≈ 7.51 µM)	4 (≈ 7.51 µM)	8 (≈ 15 µM)	Kd [14]: 5000 ± 300 nM
CCC[C@@H]1C[C@@H](C(=O)N[C@@H]([C@H]2O[C@H](SC)[C@H](O)[C@@H](O)[C@H]2O)[C@H](C)Cl)N(C)C1 [Clindamycin]	–	–	–	–	–	–	–	–	–	0.13 (≈ 0.306 µM)	0.06 (≈ 0.141 µM)	–	–
CC[C@H]1OC(=O)[C@H](C)[C@@H](O[C@H]2C[C@@](C)(OC)[C@@H](O)[C@H](C)O2)[C@H](C)[C@@H](O[C@@H]2O[C@H](C)C[C@H](N(C)C)[C@H]2O)[C@](C)(O)C[C@@H](C)C(=O)[C@H](C)[C@@H](O)[C@]1(C)O [Erythromycin]	–	–	–	–	0.06 (≈ 0.0818 µM)	0.5 (≈ 0.681 µM)	–	–	–	0.25 (≈ 0.341 µM)	32 (≈ 43.6 µM)	16 (≈ 21.8 µM)	–
CNC(C)[C@@H]1CC[C@@H](N)[C@@H](O[C@H]2[C@H](O)[C@@H](O[C@H]3OC[C@](C)(O)[C@H](NC)[C@H]3O)[C@H](N)C[C@@H]2N)O1 (stereo partly drawn) [Gentamicin]	–	–	–	–	–	–	–	–	–	–	–	–	MIC [15]: 64 µg/mL (≈ 134 µM); MIC [16]: 32 µg/mL (≈ 67 µM); MIC [17]: 0.25 µg/mL (≈ 0.523 µM); MIC [18]: 64 µg/mL (≈ 134 µM)
CCn1cc(C(=O)O)c(=O)c2cc(F)c(N3CCNCC3)cc21 [Norfloxacin]	–	0.5 (≈ 1.57 µM)	–	–	–	–	–	–	–	64 (≈ 200 µM)	64 (≈ 200 µM)	–	–
O=C1C2=C(CCN(Cc3ccccc3)C2)N2CCN=C2N1Cc1ccc(C(F)(F)F)cc1 [ONC212]	1 (≈ 2.27 µM)	0.5 (≈ 1.14 µM)	0.25 (≈ 0.568 µM)	0.25 (≈ 0.568 µM)	0.5 (≈ 1.14 µM)	0.5 (≈ 1.14 µM)	0.25 (≈ 0.568 µM)	0.5 (≈ 1.14 µM)	0.25 (≈ 0.568 µM)	0.25 (≈ 0.568 µM)	1 (≈ 2.27 µM)	0.5 (≈ 1.14 µM)	–
Cc1onc(-c2ccccc2)c1C(=O)N[C@@H]1C(=O)N2[C@@H]1SC(C)(C)[C@@H]2C(=O)O [Oxacillin]	–	4 (≈ 9.96 µM)	0.1 (≈ 0.249 µM)	–	0.1 (≈ 0.249 µM)	–	–	0.5 (≈ 1.25 µM)	2 (≈ 4.98 µM)	1 (≈ 2.49 µM)	–	–	–
CN(C)[C@@H]1C(O)=C(C(N)=O)C(=O)[C@@]2(O)C(O)=C3C(=O)c4c(O)cccc4[C@@](C)(O)[C@H]3C[C@@H]12 [Tetracycline]	–	–	–	–	–	2.5 (≈ 5.63 µM)	–	–	0.06 (≈ 0.135 µM)	–	–	16 (≈ 36 µM)	–
Staphylococcus aureus ClpP, Q2G036 1-195 (enzyme) MNLIPTVIETTNRGERAYDIYSRLLKDRIIMLGSQIDDNVANSIVSQLLFLQAQDSEKDIYLYINSPGGSVTAGFAIYDTIQHIKPDVQTICIGMAASMGSFLLAAGAKGKRFALPNAEVMIHQPLGGAQGQATEIEIAANHILKTREKLNRILSERTGQSIEKIQKDTDRDNFLTAEEAKEYGLIDEVMVPETK	–	–	–	–	–	–	–	–	–	–	–	–	stoichiometry N [19]: 14
